From patent US20250340593A1, “METHOD AND COMPOSITION FOR TREATING NEURODEGENERATIVE DISORDER” (priority 2022, published 2025)
Residues, ends and D or L forms follow the SMILES beside them.

Target: T1, soluble Aβ species (monomers, LMW and HMW Aβo) (Homo sapiens, UniProt P05067)
T1 construct: purchased Bachem; host or cells: chemical synthesis
Assay: Western blotting of soluble Aβ species (6E10 antibody)
Assay type: biochemical
Method: Aβ preparations (1 μg) were subjected to immunoblotting analysis and separated on 4-12% gradient SDS-PAGE gels, prior to being transferred on nitrocellulose membranes. After a 45 minutes blocking step in Tris-buffered saline, 0.1% Tween, pH 7.6, 5% milk, membranes were immunoblotted overnight at 4° C. with the 6E10 anti-Ab antibody diluted in Tris-buffered saline, 0.1% Tween, pH 7.6, with 2% milk. Horseradish peroxidase (HRP)-conjugated secondary anti-mouse antibody was next applied for 1 h30 at room temperature. Proteins were visualized with an ECL detection system and band intensities quantified using a densitometric analysis with Image J software.

[1] = Aβ aggregated with peptide for 24 hours, compared to the two other conditions

T1 sequence (P05067 672-713 limits assumed): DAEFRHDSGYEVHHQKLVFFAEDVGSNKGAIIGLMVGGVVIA

SMILES: CC(C)[C@H](NC(=O)[C@H](Cc1ccc(O)cc1)NC(=O)[C@@H](NC(=O)[C@H](CO)NC(=O)[C@H](Cc1c[nH]c2ccccc12)NC(=O)[C@H](CO)NC(=O)[C@H](CCCCN)NC(=O)[C@H](Cc1ccc(O)cc1)NC(=O)[C@H](CCCNC(=N)N)NC(=O)[C@H](CO)NC(=O)[C@H](CCCCN)NC(=O)[C@H](CCCCN)NC(=O)[C@H](CCCNC(=N)N)NC(=O)[C@@H](N)CCCCN)C(C)C)C(=O)NCC(=O)O [BP, KRKKSRYKSWSVYVG] (H-KRKKSRYKSWSVYVG-OH; N-terminus and C-terminus assumed)
- fraction of LMW Aβo (Aβ aggregated with peptide for 2 hours, compared to Aβ alone and Aβ and CP): significantly increased
- amount of HMW Aβo (Aβ aggregated with peptide for 2 hours, compared to the Aβ alone condition): significant decrease
- LMW Aβo and Aβ monomers [1]: increase
- fraction of HMW Aβo [1]: significant decrease
